Results on one molecule are retold here after publication PMC9817100, “Preclinical profiles of SKB264, a novel anti-TROP2 antibody conjugated to topoisomerase inhibitor, demonstrated promising antitumor efficacy compared to IMMU-132” (Frontiers in Oncology, 2022).

The target in this assay is T1, DNA topoisomerase I (Homo sapiens, UniProt P11387).
T1 sequence (P11387 1-765): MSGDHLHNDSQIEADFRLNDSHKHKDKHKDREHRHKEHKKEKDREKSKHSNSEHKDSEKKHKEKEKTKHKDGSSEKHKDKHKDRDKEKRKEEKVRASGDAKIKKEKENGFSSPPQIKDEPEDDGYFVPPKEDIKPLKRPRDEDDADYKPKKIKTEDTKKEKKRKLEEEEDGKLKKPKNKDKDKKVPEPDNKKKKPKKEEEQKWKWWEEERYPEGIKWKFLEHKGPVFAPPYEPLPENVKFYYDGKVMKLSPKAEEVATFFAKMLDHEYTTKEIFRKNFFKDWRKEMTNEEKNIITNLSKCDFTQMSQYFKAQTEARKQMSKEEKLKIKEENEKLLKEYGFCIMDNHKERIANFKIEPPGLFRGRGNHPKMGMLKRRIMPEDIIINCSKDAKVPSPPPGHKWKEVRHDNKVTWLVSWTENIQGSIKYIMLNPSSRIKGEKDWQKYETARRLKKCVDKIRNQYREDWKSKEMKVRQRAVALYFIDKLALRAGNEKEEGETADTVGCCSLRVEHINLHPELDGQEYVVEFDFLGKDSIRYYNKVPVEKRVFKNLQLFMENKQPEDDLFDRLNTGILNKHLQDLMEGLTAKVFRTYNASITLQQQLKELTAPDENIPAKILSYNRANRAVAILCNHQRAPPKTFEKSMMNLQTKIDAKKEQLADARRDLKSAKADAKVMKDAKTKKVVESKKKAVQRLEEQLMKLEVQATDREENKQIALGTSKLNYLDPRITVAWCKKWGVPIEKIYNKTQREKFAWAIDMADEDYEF
Description: topoisomerase I-mediated DNA relaxation assay (cell-free). It is filed as biochemical. Conditions: read-out: DNA topoisomerase I inhibition (IC50). From the text: SKB264 is a TROP2-targeting ADC, which consists of a recombinant humanized anti-TROP2 antibody and a topoisomerase I inhibitor derived from Belotecan (KL610023), integrated together via a sulfonyl pyrimidine-CL2A-carbonate linker. The payload is conjugated with the antibody through irreversible nucleophilic aromatic substitution by tris (2-carboxyethyl) phosphine hydrochloride (TCEP HCl), a reducing agent that can reduce the interchain disulfide bounds. The drug-to-antibody ratio (DAR) of SKB264 was approximately 7.4, which was determined by the reversed-phase chromatography (RPC), and might be the theoretical maximum drug loading number for conventional interchain cysteine conjugation ( Figure 1B ). SKB264 was designed to release payload KL610023 after internalization by TROP2-expressing tumor cells. The inhibitory effect of KL610023 on topoisomerase I was almost similar to that of SN-38, as measured by a topoisomerase I-mediated DNA relaxation assay ( Figure 1C ).
Figure 1 Structure and characterization of SKB264. […] (B) The distribution of the conjugated drug determined by the reverse-phase chromatography analysis (L-0: Unconjugated light chain, L-1: Light chain conjugated with one payload, H-0: Unconjugated heavy chain, H-1: Heavy chain conjugated with one payload, H-2: Heavy chain conjugated with two payloads, H-3: Heavy chain conjugated with three payloads). […]

For `CC[C@@]1(O)C(=O)OCc2c1cc1n(c2=O)Cc2c-1nc1ccccc1c2CCN(C(C)C)S(C)(=O)=O` [KL610023], the concentration for half-maximal inhibition (IC50) is 700 nM.
